From publication PMC6152638, “Anti-Inflammatory Phenolic Acid Esters from the Roots and Rhizomes of Notopterygium incisium and Their Permeability in the Human Caco-2 Monolayer Cell Model” (Molecules : A Journal of Synthetic Chemistry and Natural …, 2017)
“Also recorded” adds a separate entry of the source. Where two headings read alike, the source gives them in different places.

How the values were obtained:
[1] = tested on: NO production in LPS-stimulated RAW264.7 cells; design: method as in PMID 28333094; settings: cited from earlier work
[2] = Transport in the human intestinal Caco-2 cell monolayer model; assay type: in vitro ADME; settings: human; for Papp B→A at 90 min, 50 µM / efflux ratio at 90 min, 50 µM: Caco-2; for Papp B→A at 90 min, 50 µM: basolateral to apical; for efflux ratio at 90 min, 50 µM: ratio of Papp BL→AP to Papp AP→BL
Procedure: (§1) For confluence and differentiation, cells were seeded at a density of 1 × 10^5 cells/cm^2 into 12-well Transwell plates (insert diameter 12 mm, pore size 3.0 μm, membrane growth area 1.12 cm^2, Costar® #3402) and were allowed to grow for 21 days before the permeation experiment. On Day 21, the monolayers with TEER values >500 Ω·cm^2 were qualified for the transport experiment. The transport study was initiated by the careful removal of the culture medium from AP and BL side of the inserts. Caco-2 monolayers were rinsed twice with pre-warmed HBSS and were incubated by pre-warmed HBSS for 30 min at 37 °C. Stock solutions of test phenolic acid esters were prepared in DMSO and diluted to 50 µM with HBSS. […] The assayed solutions (50 µM) were added to the AP side (0.5 mL, for absorption transport) or BL side (1.5 mL, for efflux transport) of the inserts, while the receiving chamber contained the corresponding volume of HBSS. Incubation was performed at 37 °C for 90 min, with shaking at 50 rpm. Samples were collected from the inserts, then frozen, lyophilized, redissolved in MeOH, and injected into HPLC system for quantitative analysis.
(§2) The Papp values were calculated as the following equation:Papp = (dQ/dt) × (1/A) × (1/C0) (cm/s)(1) where dQ/dt is the rate of the appearance of the test compound on the receiver compartment (μmol/s), C0 is the initial test compound concentration on the donor compartment (μmol/mL), and A is the surface area of Caco-2 monolayer (cm^2).

[3] = tested on: Caco-2 cell monolayer; assay: as above; assay type: in vitro ADME; settings: for absorption assignment: assigned from Papp AP→BL against propranolol and atenolol; for amount in the receiving chambers: HPLC quantification after transport
Procedure: as §1, §2

[4] = tested on: NO production in LPS-activated RAW264.7 macrophages; assay: NO inhibitory assay in LPS-activated RAW264.7 macrophages (Griess); assay type: cell-based, murine; settings: Mus musculus, read-out: IC50 on NO production
Procedure: Briefly, RAW 264.7 cells were maintained in DMEM containing 10% FBS, in a constant humidity atmosphere of 5% CO2 and 95% air at 37 °C, seeded in 96-well culture plates (Costar® #3599, Cambridge, MA, USA) at a density of 3 × 10^4 cells/well for 12 h, and then stimulated with LPS (1 μg/mL) and treated with various concentrations of assayed compounds for 24 h. After that, the cell culture supernatant (100 μL) was collected to react with Griess reagent (100 μL) for 15 min at room temperature. The nitrite in culture medium was measured as an indicator of NO production. NaNO2 was used to generate a standard curve, and NO production was determined by measuring the optical density at 540 nm in comparison with the standard curve. […] The experiments were performed in parallel three times, and L-NIL was used as a positive control. Cell viability (>95%) was assessed by using an MTT assay. The IC50 values were calculated by the software SPSS 16.0 (SPSS Inc., Chicago, IL, USA).

[5] = Stability of the phenolic acid esters in HPLC method validation (Table S1); assay type: physicochemical
Procedure: Quantitative analysis of nine phenolic acid esters was performed on a Dionex Ultimate™ 3000 UHPLC system (Dionex Corp., Sunnyvale, CA, USA), comprised of Ultimate 3000 pump, autosampler, column compartment, and diode array detector. The signals were acquired and processed applying a Chromeleon version 6.80 software (Dionex Corp., Sunnyvale, CA, USA). HPLC separation was performed on a C18 Luna® column (250 mm × 4.60 mm i.d., 5 μm) (Phenomenex, Torrance, CA, USA). […] The detection wavelength was set at 305 nm for 2, 270 nm for 3, 259 nm for 4, 325 nm for 1 and 5–9. Column oven was maintained at 25 °C, and the injected volume was 20 μL. The calibration curves were constructed by plotting peak area (y, mAU × min) versus concentration (x, µM). The linear equations across 1–75 µM were y = 0.0087x − 0.0041 with r^2 of 0.9994 for 1, y = 0.0066x − 0.0013 with r^2 of 0.9999 for 2, y = 0.0667x − 0.0269 with r^2 of 0.9997 for 4, y = 0.0917x + 0.0040 with r^2 of 0.9998 for 5, y = 0.0614x − 0.0038 with r^2 of 0.9999 for 6, y = 0.0623x + 0.0051 with r^2 of 0.9999 for 8, and y = 0.0639x − 0.0464 with r^2 of 0.9978 for 9. […] Quantification was carried out by peak area measurements in comparison with the calibration curves.

[6] = tested on: RAW264.7 cells; assay: MTT cytotoxicity assay in RAW264.7 cells; settings: viability less than 95% of control considered toxic
Procedure: The cell viability less than 95% of control was considered toxic.
Cell viability (>95%) was assessed by using an MTT assay.

[7] = Caco-2, apical to basolateral, 50 µM, incubation up to 90 min, n = 4
[8] = Caco-2, values as stated in text
[9] = 50 µM, incubation up to 90 min, n = 4
[10] = RAW264.7, LPS 1 μg/mL, 24 h, n = 3

Compound	IC50 [1]	Papp A→B at 90 min, 50 µM [2, 7]	Papp A→B at 90 min, 50 µM [2, 8]	Papp B→A at 90 min, 50 µM [2, 9]	efflux ratio at 90 min, 50 µM [2]	absorption assignment [3]	IC50 [4, 10]	Stability ([5]; QC 5 μM)	Stability ([5]; QC 25 μM)	Stability ([5]; QC 50 μM)	cytotoxicity (MTT) ([6]; 0.78125–25 μM)	amount in the receiving chambers [3]	cytotoxicity (MTT) ([6]; 3.125–100 μM)	cytotoxicity (MTT) ([6]; 1.5625–50 μM)	cytotoxicity (MTT) ([6]; 0.25 to 8 μM)	IC50 ([4]; RAW264.7, 24 h)
COc1cc(/C=C/C(=O)OCC(O)COC(=O)/C=C/c2ccc(O)c(OC)c2)ccc1O [1,3-O-diferuloylglycerol]	12 ± 1.07 µM															
COc1cc(/C=C/C(=O)OCC(CO)OC(=O)/C=C/c2ccc(O)cc2)ccc1O (stereo not drawn) [1-O-feruloyl-2-O-p-coumaroylglycerol]	9.12 ± 0.72 µM															
CC/C(C)=C/CCOC(=O)/C=C/c1ccc(O)c(OC)c1 [Compound 1, 4-methyl-3-trans-hexenylferulate]		0.5 ± 0.12 ×10⁻⁶ cm/s	< 1 ×10⁻⁶ cm/s	0.62 ± 0.12 ×10⁻⁶ cm/s	1.24	poorly absorbed	1.01 ± 0.08 µM	93.56±1.02%	95.65±0.56%	92.25±1.63%	no toxicity					
O=C(OCc1ccccc1)c1ccccc1O [Compound 2, benzylsalicylate]		18 ± 1.63 ×10⁻⁶ cm/s	> 10 ×10⁻⁶ cm/s	13.4 ± 0.63 ×10⁻⁶ cm/s		good absorption; also recorded: well-absorbed	53.7 ± 4.13 µM	98.84±2.09%	94.57±1.85%	97.25±2.09%						
CC1(C)C2CCC1(C)C(OC(=O)C=Cc1ccccc1)C2 (stereo not drawn) [Compound 3, bornylcinnamate]		< 0.05 ×10⁻⁶ cm/s	< 0.1 ×10⁻⁶ cm/s	< 0.02 ×10⁻⁶ cm/s		poorly absorbed; also recorded: hardly permeate	70.5 ± 25.9 µM					below the lower limit of detection	no toxicity			
COc1ccc(C(=O)OCCc2ccc(O)cc2)cc1 [Compound 4, p-hydroxyphenethyl anisate]		0.36 ± 0.04 ×10⁻⁶ cm/s	< 1 ×10⁻⁶ cm/s	0.05 ± 0.01 ×10⁻⁶ cm/s	0.15	poorly absorbed	11.1 ± 1.43 µM	92.28±2.07%	100.74±2.15%	95.85±2.01%			no toxicity			
COc1cc(/C=C/C(=O)OC2CC3CCC2(C)C3(C)C)ccc1O (stereo not drawn) [Compound 5, (−)-bornylferulate]		0.08 ± 0.02 ×10⁻⁶ cm/s	< 0.1 ×10⁻⁶ cm/s	0.13 ± 0.02 ×10⁻⁶ cm/s	1.69	poorly absorbed; also recorded: hardly permeate	4.63 ± 1.73 µM	96.29±0.99%	94.56±0.96%	95.85±1.01%	no toxicity					
COc1cc(/C=C/C(=O)OC(C)C)ccc1O [Compound 6, isopropylferulate]		17.6 ± 2.27 ×10⁻⁶ cm/s	> 10 ×10⁻⁶ cm/s	13.8 ± 2.74 ×10⁻⁶ cm/s	0.79	good absorption; also recorded: well-absorbed	12.6 ± 2.8 µM	95.08±1.56%	102.02±1.96%	102.05±1.39%				no toxicity		
CCCCCCCCCCCCCCCCCCCCCCCCCCCCCCOC(=O)/C=C/c1ccc(O)c(OC)c1 [Compound 7, trans-triacontyl-4-hydroxy-3-methoxycinnamate]		< 0.02 ×10⁻⁶ cm/s	< 0.1 ×10⁻⁶ cm/s	< 0.01 ×10⁻⁶ cm/s		poorly absorbed; also recorded: hardly permeate						below the lower limit of detection			had cytotoxicity	
COc1ccc(CCOC(=O)/C=C/c2ccc(O)c(OC)c2)cc1 [Compound 8, 4-methoxyphenethylferulate]		2.21 ± 0.07 ×10⁻⁶ cm/s	~1 ×10⁻⁶ cm/s	2.55 ± 0.44 ×10⁻⁶ cm/s	1.15	moderately absorbed	2.47 ± 0.64 µM	93.28±2.17%	95.45±1.12%	102.58±1.54%				no toxicity		
COc1cc(/C=C/C(=O)OCCc2ccccc2)ccc1O [Compound 9, phenethylferulate]		0.66 ± 0.16 ×10⁻⁶ cm/s	< 1 ×10⁻⁶ cm/s	0.7 ± 0.18 ×10⁻⁶ cm/s	1.06	poorly absorbed	2.73 ± 0.58 µM	92.26±2.89%	93.71±1.88%	101.99±1.32%				no toxicity		
COc1cc(/C=C/C(=O)O)ccc1O [Compound 10, ferulic acid, reference compound]							67.9 ± 0.91 µM									
O=C(O)/C=C/c1ccccc1 [Compound 11, cinnamic acid, reference compound]							> 200 µM									
CC(=N)NCCCC[C@H](N)C(=O)O [L-NIL, reference compound]																9.37 ± 1.57 µM
CC(C)NCC(O)COc1cccc2ccccc12 (stereo not drawn) [propranolol, reference compound]			22.9 ×10⁻⁶ cm/s													
